PubChem BioAssay AID1259407 (Chemical Carcinogenesis Research Information System (CCRIS), 2018)
Activity calls are given as the source filed them. No rule for the calls is given here.

Test system: CCRIS mutagenicity, Ames/micronucleus/aberration tests
Assay: CCRIS mutagenicity studies
[1] = Test System: AMES SALMONELLA TYPHIMURIUM, Strain/Indicator: TA98, Metabolic Activation: NONE, Method: PREINCUBATION
[2] = Test System: AMES SALMONELLA TYPHIMURIUM, Strain/Indicator: TA100, Metabolic Activation: NONE, Method: PREINCUBATION
[3] = Test System: AMES SALMONELLA TYPHIMURIUM, Strain/Indicator: TA1535, Metabolic Activation: NONE, Method: STANDARD PLATE
[4] = Test System: AMES SALMONELLA TYPHIMURIUM, Strain/Indicator: TA1535, Metabolic Activation: RAT, LIVER, S-9, AROCLOR 1254, Method: STANDARD PLATE
[5] = Test System: AMES SALMONELLA TYPHIMURIUM, Strain/Indicator: TA1537, Metabolic Activation: NONE, Method: STANDARD PLATE
[6] = Test System: AMES SALMONELLA TYPHIMURIUM, Strain/Indicator: TA1537, Metabolic Activation: RAT, LIVER, S-9, AROCLOR 1254, Method: STANDARD PLATE
[7] = Test System: AMES SALMONELLA TYPHIMURIUM, Strain/Indicator: TA1538, Metabolic Activation: NONE, Method: STANDARD PLATE
[8] = Test System: AMES SALMONELLA TYPHIMURIUM, Strain/Indicator: TA98, Metabolic Activation: NONE, Method: STANDARD PLATE
[9] = Test System: AMES SALMONELLA TYPHIMURIUM, Strain/Indicator: TA98, Metabolic Activation: RAT, LIVER, S-9, AROCLOR 1254, Method: STANDARD PLATE
[10] = Test System: AMES SALMONELLA TYPHIMURIUM, Strain/Indicator: TA100, Metabolic Activation: NONE, Method: STANDARD PLATE
[11] = Test System: AMES SALMONELLA TYPHIMURIUM, Strain/Indicator: TA100, Metabolic Activation: RAT, LIVER, S-9, AROCLOR 1254, Method: STANDARD PLATE
[12] = Test System: AMES SALMONELLA TYPHIMURIUM, Strain/Indicator: TA1538, Metabolic Activation: RAT, LIVER, S-9, AROCLOR 1254, Method: STANDARD PLATE

Question: Which results are given for `Cc1cc(/C=C/c2ccc3cc(N(C)C)ccc3[n+]2C)c(C)n1-c1ccccc1`?
Answer: mutagenic call (Test System: AMES SALMONELLA TYPHIMURIUM, Strain/Indicator: TA98, Metabolic Activation: HUMAN, LIVER, S-9, Method: STANDARD PLATE): active; positive; mutagenic call [1]: active; positive; mutagenic call (Test System: AMES SALMONELLA TYPHIMURIUM, Strain/Indicator: TA98, Metabolic Activation: RAT, LIVER, S-9, AROCLOR 1254, Method: PREINCUBATION): active; positive; mutagenic call (Test System: AMES SALMONELLA TYPHIMURIUM, Strain/Indicator: TA100, Metabolic Activation: HUMAN, LIVER, S-9, Method: STANDARD PLATE): active; positive; mutagenic call [2]: active; positive; mutagenic call (Test System: AMES SALMONELLA TYPHIMURIUM, Strain/Indicator: TA100, Metabolic Activation: RAT, LIVER, S-9, AROCLOR 1254, Method: PREINCUBATION): active; positive; mutagenic call [3]: inactive; negative; mutagenic call [4]: inactive; negative; mutagenic call [5]: inactive; negative; mutagenic call [6]: inactive; negative; mutagenic call [7]: inactive; negative; mutagenic call (Test System: AMES SALMONELLA TYPHIMURIUM, Strain/Indicator: UTH8413, Metabolic Activation: NONE, Method: PREINCUBATION): inactive; negative; mutagenic call (Test System: AMES SALMONELLA TYPHIMURIUM, Strain/Indicator: UTH8414, Metabolic Activation: NONE, Method: PREINCUBATION): active; positive; mutagenic call (Test System: AMES SALMONELLA TYPHIMURIUM, Strain/Indicator: UTH8414, Metabolic Activation: RAT, LIVER, S-9, AROCLOR 1254, Method: PREINCUBATION): active; positive

Question: Which results are given for `Nc1ccc(N=Nc2ccccc2)cc1`?
Answer: mutagenic call (Test System: AMES SALMONELLA TYPHIMURIUM, Strain/Indicator: TA98, Metabolic Activation: HAMSTER, LIVER, S-9, AROCLOR 1254 (30%), Method: PREINCUBATION): active; positive; mutagenic call [1]: inactive; negative; mutagenic call [8]: inactive; negative; mutagenic call (Test System: AMES SALMONELLA TYPHIMURIUM, Strain/Indicator: TA98, Metabolic Activation: RAT, LIVER, MICROSOMES, 4-AMINOAZOBENZENE, Method: PREINCUBATION): inactive; negative; mutagenic call (Test System: AMES SALMONELLA TYPHIMURIUM, Strain/Indicator: TA98, Metabolic Activation: RAT, LIVER, MICROSOMES, AROCLOR 1254, Method: PREINCUBATION): inactive; negative; mutagenic call (Test System: AMES SALMONELLA TYPHIMURIUM, Strain/Indicator: TA98, Metabolic Activation: RAT, LIVER, MICROSOMES, Method: PREINCUBATION): inactive; negative; mutagenic call (Test System: AMES SALMONELLA TYPHIMURIUM, Strain/Indicator: TA98, Metabolic Activation: RAT, LIVER, S-9, AROCLOR 1254 (30%), Method: PREINCUBATION): active; positive; mutagenic call [9]: active; positive; mutagenic call (Test System: AMES SALMONELLA TYPHIMURIUM, Strain/Indicator: TA98, Metabolic Activation: RAT, LIVER, S-9, KC500 OR PHENOBARBITAL, Method: LIQUID SUSPENSION): active; positive; mutagenic call (Test System: AMES SALMONELLA TYPHIMURIUM, Strain/Indicator: TA98, Metabolic Activation: RAT, LIVER, S-9, PCB, Method: PREINCUBATION): active; positive; mutagenic call (Test System: AMES SALMONELLA TYPHIMURIUM, Strain/Indicator: TA100, Metabolic Activation: HAMSTER, LIVER, S-9, AROCLOR 1254 (30%), Method: PREINCUBATION): active; positive; mutagenic call [2]: inactive; negative; mutagenic call [10]: inactive; negative; mutagenic call (Test System: AMES SALMONELLA TYPHIMURIUM, Strain/Indicator: TA100, Metabolic Activation: RAT, LIVER, S-9, AROCLOR 1254 (30%), Method: PREINCUBATION): inactive; negative; mutagenic call [11]: active; positive; mutagenic call (Test System: AMES SALMONELLA TYPHIMURIUM, Strain/Indicator: TA100, Metabolic Activation: RAT, LIVER, S-9, KC500 OR PHENOBARBITAL, Method: LIQUID SUSPENSION): active; positive; mutagenic call (Test System: AMES SALMONELLA TYPHIMURIUM, Strain/Indicator: TA100, Metabolic Activation: RAT, LIVER, S-9, PCB, Method: PREINCUBATION): active; positive; mutagenic call [12]: active; positive; mutagenic call (Test System: UDS RODENT HEPATOCYTES, Strain/Indicator: THY INCORP (NON-S-PHASE), Method: AUTORADIOGRAPHY): active; positive

Question: For `Nc1ccc(S(N)(=O)=O)cc1`, which mutagenic call (End Point: IN VITRO CHROMOSOMAL ABERRATIONS, Test System: CHINESE HAMSTER OVARY CELLS, Metabolic Activation: NONE) is on record?
Answer: inactive; negative

Question: What about the mutagenic call (End Point: IN VITRO CHROMOSOMAL ABERRATIONS, Test System: CHINESE HAMSTER OVARY CELLS, Metabolic Activation: RAT, LIVER, S-9, AROCLOR 1254) of the same compound?
Answer: inactive; negative

Question: What about the mutagenic call (Test System: AMES SALMONELLA TYPHIMURIUM, Strain/Indicator: TA98, Metabolic Activation: HAMSTER, LIVER, S-9, AROCLOR 1254, Method: STANDARD PLATE) of the same compound?
Answer: inactive; negative

Question: What about the mutagenic call [8] of the same compound?
Answer: inactive; negative

Question: What about the mutagenic call [9] of the same compound?
Answer: inactive; negative

Question: And the mutagenic call (Test System: AMES SALMONELLA TYPHIMURIUM, Strain/Indicator: TA100, Metabolic Activation: HAMSTER, LIVER, S-9, AROCLOR 1254, Method: STANDARD PLATE)?
Answer: inactive; negative

Question: What about the mutagenic call [10] of the same compound?
Answer: inactive; negative

Question: And the mutagenic call [11]?
Answer: inactive; negative

Question: What about the mutagenic call (Test System: AMES SALMONELLA TYPHIMURIUM, Strain/Indicator: TA1535, Metabolic Activation: HAMSTER, LIVER, S-9, AROCLOR 1254, Method: STANDARD PLATE) of the same compound?
Answer: inactive; negative

Question: What about the mutagenic call [3] of the same compound?
Answer: inactive; negative

Question: What about the mutagenic call [4] of the same compound?
Answer: inactive; negative

Question: And the mutagenic call (Test System: AMES SALMONELLA TYPHIMURIUM, Strain/Indicator: TA1537, Metabolic Activation: HAMSTER, LIVER, S-9, AROCLOR 1254, Method: STANDARD PLATE)?
Answer: inactive; negative

Question: What about the mutagenic call [5] of the same compound?
Answer: inactive; negative

Question: And the mutagenic call [6]?
Answer: inactive; negative

Question: What about the mutagenic call (Test System: AMES SALMONELLA TYPHIMURIUM, Strain/Indicator: TA1538, Metabolic Activation: HAMSTER, LIVER, S-9, AROCLOR 1254, Method: STANDARD PLATE) of the same compound?
Answer: inactive; negative

Question: And the mutagenic call [7]?
Answer: inactive; negative

Question: And the mutagenic call [12]?
Answer: inactive; negative

Question: What about the mutagenic call (Test System: MOUSE LYMPHOMA, Strain/Indicator: L5178Y (TK+/TK-), Metabolic Activation: NONE, Method: SUSPENSION/PLATE) of the same compound?
Answer: inactive; negative

Question: What about the mutagenic call (Test System: MOUSE LYMPHOMA, Strain/Indicator: L5178Y (TK+/TK-), Metabolic Activation: RAT, LIVER, S-9, AROCLOR 1254, Method: SUSPENSION/PLATE) of the same compound?
Answer: inactive; negative

Question: And the mutagenic call (Test System: Mouse lymphoma, Strain/Indicator: L5178Y (tk+/tk-), Metabolic Activation: None, Method: Suspension/plate)?
Answer: inactive; negative

Question: What about the mutagenic call (Test System: Mouse lymphoma, Strain/Indicator: L5178Y (tk+/tk-), Metabolic Activation: Rat, Liver, S-9, Aroclor 1254, Method: Suspension/plate) of the same compound?
Answer: inactive; negative

Question: Which mutagenic call [8] does the source give for `C[C@H]1C=C(C=O)[C@H](C=O)[C@@H](O)[C@@H]2CC(C)(C)C[C@@H]21` here?
Answer: inactive; negative

Question: And the mutagenic call [10]?
Answer: inactive; negative

Question: And the mutagenic call (Test System: AMES SALMONELLA TYPHIMURIUM, Strain/Indicator: TA2637, Metabolic Activation: NONE, Method: STANDARD PLATE)?
Answer: inactive; negative
